Measured values from patent US7205305B2, “Inhibitors of p38” (Vertex Pharmaceuticals Incorporated, priority 1996, dated 2007).
Read-outs that look alike come from different tables or passages of the source.

Columns and labels:
[1] = test system: IL-1 production in whole blood; assay: Inhibition of IL-1 production in LPS-stimulated whole blood ("WB"); assay type: cell-based, human
Procedure: (§1) Inhibitors were serially diluted in DMSO from a 20 mM stock. At least 6 serial dilutions were prepared. Then 4× inhibitor stocks were prepared by adding 4 μl of an inhibitor dilution to 1 ml of RPMI1640 medium/10% fetal bovine serum. The 4× inhibitor stocks contained inhibitor at concentrations of 80 μM, 32 μM, 12.8 μM, 5.12 μM, 2.048 μM, 0.819 μM, 0.328 μM, 0.131 μM, 0.052 μM, 0.021 μM etc. The 4× inhibitor stocks were pre-warmed at 37° C. until use.
(§2) Alternatively, whole blood containing an anti-coagulant was used directly in the assay.
(§3) We placed 100 μl of cell suspension or whole blood in each well of a 96-well cell culture plate. Then we added 50 μl of the 4× inhibitor stock to the cells. Finally, we added 50 μl of a lipopolysaccharide (LPS) working stock solution (16 ng/ml in cell culture medium) to give a final concentration of 4 ng/ml LPS in the assay. The total assay volume of the vehicle control was also adjusted to 200 μl by adding 50 μl cell culture medium. The PBMC cells or whole blood were then incubated overnight (for 12–15 hours) at 37° C./5% CO2 in a humidified atmosphere.
(§4) The next day the cells were mixed on a shaker for 3–5 minutes before centrifugation at 500×g for 5 minutes. Cell culture supernatants were harvested and analyzed by ELISA for levels of IL-1b (R & D Systems, Quantikine kits, #DBL50), TNF-α (BioSource, #KHC3012), IL-6 (Endogen, #EH2-IL6) and IL-8 (Endogen, #EH2-IL8) according to the instructions of the manufacturer. The ELISA data were used to generate dose-response curves from which IC50 values were derived.

[2] = test system: TNF production in LPS-stimulated PBMCs; assay: Inhibition of TNF production in LPS-stimulated PBMCs ("cell"); assay type: cell-based, human
Procedure: as §1
(§5) Fresh human blood buffy cells were separated from other cells in a Vacutainer CPT from Becton & Dickinson (containing 4 ml blood and enough DPBS without Mg^2+/Ca^2+ to fill the tube) by centrifugation at 1500×g for 15 min. Peripheral blood mononuclear cells (PBMCs), located on top of the gradient in the Vacutainer, were removed and washed twice with RPMI1640 medium/10% fetal bovine serum. PBMCs were collected by centrifugation at 500×g for 10 min. The total cell number was determined using a Neubauer Cell Chamber and the cells were adjusted to a concentration of 4.8×10^6 cells/ml in cell culture medium (RPMI1640 supplemented with 10% fetal bovine serum).
as §3, §4

[3] = test system: IL-1 production in LPS-stimulated PBMCs; assay: Inhibition of IL-1 production in LPS-stimulated PBMCs ("cell"); assay type: cell-based, human
Procedure: as §1, §5, §3, §4

activated p38 = activated p38 (Homo sapiens, UniProt Q16539); assay: Inhibition of phosphorylation of EGF receptor peptide ("kinase"); assay type: biochemical; settings: inhibition of phosphorylation of EGF receptor peptide by activated p38
Procedure, shortened: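 Activated p38 was preincubated with inhibitor for 15 min at room temperature in 100 mM HEPES pH 7.6, 10 mM MgCl2, 25 mM β-glycerophosphate, 10% glycerol, 5% DMSO final. Reaction used 200 μM EGF receptor peptide and 100 μM ATP for 30 min at 30° C. TFA-quenched phosphopeptide was quantified by reverse-phase HPLC.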

[4] = test system: IL-6 production in whole blood; assay: Inhibition of IL-6 production in LPS-stimulated whole blood ("WB"); assay type: cell-based, human
Procedure: as §1, §2, §3, §4

[5] = test system: TNF production in whole blood; assay: Inhibition of TNF production in LPS-stimulated whole blood ("WB"); assay type: cell-based, human
Procedure: as §1, §2, §3, §4

activated p38, sequence (Q16539 whole entry): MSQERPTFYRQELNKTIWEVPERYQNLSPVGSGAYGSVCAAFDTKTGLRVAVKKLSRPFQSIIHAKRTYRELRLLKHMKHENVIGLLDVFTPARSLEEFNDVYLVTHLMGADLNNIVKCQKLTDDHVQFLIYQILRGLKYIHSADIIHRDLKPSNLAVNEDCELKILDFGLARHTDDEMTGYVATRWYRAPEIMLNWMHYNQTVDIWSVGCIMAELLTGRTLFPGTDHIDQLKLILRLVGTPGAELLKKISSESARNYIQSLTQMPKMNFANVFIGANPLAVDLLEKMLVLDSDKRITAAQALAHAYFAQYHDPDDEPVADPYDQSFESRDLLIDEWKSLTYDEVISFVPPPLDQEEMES

| Structure (SMILES) | IC50 ([1]; Homo sapiens) [nM] | IC50 ([2]; Homo sapiens, PBMC) [nM] | IC50 ([3]; Homo sapiens, PBMC) [nM] | IC50 (activated p38) [nM] | IC50 ([4]; Homo sapiens) [nM] | IC50 ([5]; Homo sapiens) [nM] | IC50 [1] [nM] | IC50 [2] [nM] | IC50 [3] [nM] | IC50 [4] [nM] | IC50 [5] [nM] |
| --- | --- | --- | --- | --- | --- | --- | --- | --- | --- | --- | --- |
| O=C1NCN2N=C(Sc3ccccc3Br)C=CC2=C1c1c(Cl)cccc1Cl [Compound 109] | ≥ 500 | ≤ 100 | ≤ 100 | ≤ 100 | 250 to 500 | ≥ 500 |  |  |  |  |  |
| CC(C)(C)OC(=O)Nc1ccccc1SC1=NN2CNC(=O)C(c3c(Cl)cccc3Cl)=C2C=C1 [Compound 112] | ≥ 500 | ≥ 500 | 100 to 500 | 100 to 1000 | ≥ 500 | ≥ 500 |  |  |  |  |  |
| Cc1ccc(SC2=NN3CNC(=O)C(c4c(Cl)cccc4Cl)=C3C=C2)c(C)c1 [Compound 113] | ≥ 500 | 100 to 500 | ≤ 100 | ≤ 100 | ≥ 500 | ≥ 500 |  |  |  |  |  |
| O=C1NCN2N=C(Sc3ccccc3O)C=CC2=C1c1c(Cl)cccc1Cl [Compound 114] | 250 to 500 | ≤ 100 | ≤ 100 | ≤ 100 | ≤ 250 | 250 to 500 |  |  |  |  |  |
| Nc1ccccc1SC1=NN2CNC(=O)C(c3c(Cl)cccc3Cl)=C2C=C1 [Compound 115] | ≥ 500 | ≤ 100 | ≤ 100 | ≤ 100 | ≥ 500 | ≥ 500 |  |  |  |  |  |
| N#Cc1ccccc1SC1=NN2CNC(=O)C(c3c(Cl)cccc3Cl)=C2C=C1 [Compound 116] | ≥ 500 | 100 to 500 | ≤ 100 | ≤ 100 | ≥ 500 | ≥ 500 |  |  |  |  |  |
| Nc1cc(F)ccc1SC1=NN2CNC(=O)C(c3c(Cl)cccc3Cl)=C2C=C1 [Compound 117] | 250 to 500 | ≤ 100 | ≤ 100 | ≤ 100 | ≤ 250 | 250 to 500 |  |  |  |  |  |
| NCc1ccccc1SC1=NN2CNC(=O)C(c3c(Cl)cccc3Cl)=C2C=C1 [Compound 118] | ≥ 500 | 100 to 500 | 100 to 500 | 100 to 1000 | ≥ 500 | ≥ 500 |  |  |  |  |  |
| COc1ccc(C2=C3C=CC(Sc4ccc(F)cc4)=NN3CNC2=O)c(Cl)c1OC [Compound 121] | ≥ 500 | 100 to 500 | ≤ 100 | ≤ 100 | ≥ 500 | ≥ 500 |  |  |  |  |  |
| Nc1ccc(F)cc1SC1=NN2CNC(=O)C(c3c(Cl)cccc3Cl)=C2C=C1 [Compound 122] | ≥ 500 | ≥ 500 | 100 to 500 | 100 to 1000 | ≥ 500 | ≥ 500 |  |  |  |  |  |
| O=C1NCN2N=C(Sc3ccccc3CNc3ncc[nH]3)C=CC2=C1c1c(Cl)cccc1Cl [Compound 123] | ≥ 500 | 100 to 500 | 100 to 500 | 100 to 1000 | ≥ 500 | ≥ 500 |  |  |  |  |  |
| Nc1ccc(Cl)c(C2=C3C=CC(Sc4ccc(F)cc4)=NN3CNC2=O)c1Cl [Compound 125] | ≥ 500 | ≤ 100 | ≤ 100 | ≤ 100 | ≥ 500 | ≥ 500 |  |  |  |  |  |
| O=C1NCN2N=C(Sc3ccc(F)cc3Cl)C=CC2=C1c1c(Cl)cccc1Cl [Compound 127] | 250 to 500 | ≤ 100 | ≤ 100 | ≤ 100 | ≤ 250 | 250 to 500 |  |  |  |  |  |
| O=C1NCN2N=C(Sc3ccc(F)cc3)C=CC2=C1c1cc2c(cc1Cl)OCO2 [Compound 129] | 250 to 500 | ≤ 100 | ≤ 100 | ≤ 100 | 250 to 500 | ≥ 500 |  |  |  |  |  |
| COc1cc(Cl)c(C2=C3C=CC(Sc4ccc(F)cc4)=NN3CNC2=O)cc1O [Compound 135] | ≥ 500 | ≥ 500 | 100 to 500 | ≤ 100 | ≥ 500 | ≥ 500 |  |  |  |  |  |
| O=C1NCN2N=C(Sc3ccc(F)cc3Cl)C=CC2=C1c1cc2c(cc1Cl)OCO2 [Compound 136] | ≥ 500 | ≤ 100 | ≤ 100 | ≤ 100 | 250 to 500 | ≥ 500 |  |  |  |  |  |
| Nc1ccc(C2=C3C=CC(Sc4ccc(F)cc4)=NN3CNC2=O)c(Cl)c1 [Compound 137] | ≥ 500 | 100 to 500 | ≤ 100 | ≤ 100 | 250 to 500 | ≥ 500 |  |  |  |  |  |
| O=C1C(c2c(Cl)cccc2Cl)=C2C=CC(Sc3ccc(F)cc3)=NN2CN1CO [Compound 138] | ≥ 500 | 100 to 500 | ≤ 100 | 100 to 1000 | ≤ 250 | ≥ 500 |  |  |  |  |  |
| COc1ccc(C2=C3C=CC(Sc4ccc(F)cc4)=NN3CNC2=O)c(Cl)c1 [Compound 139] | ≥ 500 | ≥ 500 | ≤ 100 | ≤ 100 | ≥ 500 | ≥ 500 |  |  |  |  |  |
| CN(C)/C=N\c1ccc(C2=C3C=CC(Sc4ccc(F)cc4Cl)=NN3CNC2=O)c(Cl)c1 [Compound 140] | 250 to 500 | ≤ 100 | ≤ 100 | ≤ 100 | 250 to 500 | ≥ 500 |  |  |  |  |  |
| O=C(CCl)Nc1ccc(C2=C3C=CC(Sc4ccc(F)cc4)=NN3CNC2=O)c(Cl)c1 [Compound 141] | ≥ 500 | ≤ 100 | ≤ 100 | ≤ 100 | ≥ 500 | ≥ 500 |  |  |  |  |  |
| CC(=O)Nc1ccc(C2=C3C=CC(Sc4ccc(F)cc4)=NN3CNC2=O)c(Cl)c1 [Compound 143] | ≥ 500 | 100 to 500 | ≤ 100 | ≤ 100 | ≥ 500 | ≥ 500 |  |  |  |  |  |
| O=C(CN1CCOCC1)Nc1ccc(C2=C3C=CC(Sc4ccc(F)cc4)=NN3CNC2=O)c(Cl)c1 [Compound 144] | ≥ 500 | 100 to 500 | ≤ 100 | ≤ 100 | 250 to 500 | ≥ 500 |  |  |  |  |  |
| O=C1NCN2N=C(Sc3ccc(F)cc3Cl)C=CC2=C1c1cc2c(cc1Cl)OCO2 [Compound 145] |  |  |  | ≤ 100 |  |  | ≤ 250 | ≤ 100 | ≤ 100 | ≤ 250 | ≤ 250 |
| NC(=O)C(c1ccc(Sc2ccccc2)cn1)c1c(Cl)cccc1Cl (stereo not drawn) [Compound 201] | ≥ 500 | ≥ 500 | ≥ 500 | 100 to 1000 | ≥ 500 | ≤ 250 |  |  |  |  |  |
| NC(=O)C(c1cccc(-c2ccccc2CO)n1)c1c(Cl)cccc1Cl (stereo not drawn) [Compound 302] | ≥ 500 | 100 to 500 | ≤ 100 | ≤ 100 | ≥ 500 | ≥ 500 |  |  |  |  |  |
| CNCc1ccccc1-c1cccc(C(C(N)=O)c2c(Cl)cccc2Cl)n1 (stereo not drawn) [Compound 303] | ≥ 500 | ≥ 500 | ≥ 500 | ≥ 1000 | ≥ 500 | ≥ 500 |  |  |  |  |  |
| NC(=O)C(c1cccc(-c2ccccc2CN2CCNCC2)n1)c1c(Cl)cccc1Cl (stereo not drawn) [Compound 304] | ≥ 500 | ≥ 500 | ≥ 500 | ≥ 1000 | ≥ 500 | ≥ 500 |  |  |  |  |  |
| Cc1ccccc1-c1cccc(C(C(N)=O)c2c(Cl)cccc2Cl)n1 (stereo not drawn) [Compound 305] | ≥ 500 | ≥ 500 | ≤ 100 | ≤ 100 | ≥ 500 | ≥ 500 |  |  |  |  |  |
| NC(=O)C(c1cccc(-c2ccccc2)n1)c1c(F)cccc1Cl (stereo not drawn) [Compound 306] | ≥ 500 | ≥ 500 | 100 to 500 | 100 to 1000 | ≥ 500 | ≥ 500 |  |  |  |  |  |
